Reference: BindingDB's records for doi:10.1021/jm050280z (Uppsala University, 2005)
Starred links: 1 amine or outer side, 2 acyl side, 3 side chain; linkers in the order of their positions; H or OH if unused. Non-standard residues stand in square brackets, D forms with d. Residues, ends and D or L forms follow the SMILES beside them. X2 = O=C(c1cc(CN[*:1])cc(Cc2ccc(O)cc2)c1)[*:2]; X1 = O=C(c1cc(Cc2ccc(O)cc2)cc(N[*:1])c1)[*:2]

Biological target: Type-2 angiotensin II receptor (Sus scrofa)
Test: Binding affinity for angiotensin II receptor, type 2 in pig uterus myometrium using [125I]-Ang II as radioligand, in pH 7.4 Tris-HCl buffer for 1.5 hr at 25 degree C

Ki [nM]	Compound
1.85	CC(C)[C@H](NC(=O)[C@H](CCCNC(=N)N)NC(=O)[C@@H](N)CC(=O)O)C(=O)NCc1cc(Cc2ccc(O)cc2)cc(C(=O)N[C@@H](Cc2cnc[nH]2)C(=O)N2CCC[C@H]2C(=O)N[C@@H](Cc2ccccc2)C(=O)O)c1 [(S)-3-Amino-N-((S)-1-{1-[(S)-3-[2-[2-((S)-(S)-1-carboxy-2-phenyl-ethylcarbamoyl)-pyrrolidin-1-yl]-1-(3H-imidazol-4-ylmethyl)-2-oxo-ethylcarbamoyl]-5-(4-hydroxy-benzyl)-benzylcarbamoyl]-2-methyl-propylcarbamoyl}-4-guanidino-butyl)-succinamic acid] (H-DRV[X2]HPF-OH)
10.1	N=C(N)NCCC[C@H](NC(=O)[C@@H](N)CC(=O)O)C(=O)NCc1cc(Cc2ccc(O)cc2)cc(C(=O)N[C@@H](Cc2cnc[nH]2)C(=O)N2CCC[C@H]2C(=O)N[C@@H](Cc2ccccc2)C(=O)O)c1 [(S)-3-Amino-N-{(S)-1-[3-[(S)-2-[2-((S)-(S)-1-carboxy-2-phenyl-ethylcarbamoyl)-pyrrolidin-1-yl]-1-(3H-imidazol-4-ylmethyl)-2-oxo-ethylcarbamoyl]-5-(4-hydroxy-benzyl)-benzylcarbamoyl]-4-guanidino-butyl}-succinamic acid] (H-DR[X2]HPF-OH)
9.8	CC(C)[C@H](NC(=O)[C@H](CCCNC(=N)N)NC(=O)[C@@H](N)CC(=O)O)C(=O)Nc1cc(Cc2ccc(O)cc2)cc(C(=O)N[C@@H](Cc2cnc[nH]2)C(=O)N2CCC[C@H]2C(=O)N[C@@H](Cc2ccccc2)C(=O)O)c1 [(S)-3-Amino-N-((S)-1-{(S)-1-[(S)-3-[2-[2-((S)-(S)-1-carboxy-2-phenyl-ethylcarbamoyl)-pyrrolidin-1-yl]-1-(3H-imidazol-4-ylmethyl)-2-oxo-ethylcarbamoyl]-5-(4-hydroxy-benzyl)-phenylcarbamoyl]-2-methyl-propylcarbamoyl}-4-guanidino-butyl)-succinamic acid] (H-DRV[X1]HPF-OH)
41.3	N=C(N)NCCC[C@H](NC(=O)[C@@H](N)CC(=O)O)C(=O)Nc1cc(Cc2ccc(O)cc2)cc(C(=O)N[C@@H](Cc2cnc[nH]2)C(=O)N2CCC[C@H]2C(=O)N[C@@H](Cc2ccccc2)C(=O)O)c1 [(S)-3-Amino-N-{(S)-1-[3-[(S)-2-[2-((S)-(S)-1-carboxy-2-phenyl-ethylcarbamoyl)-pyrrolidin-1-yl]-1-(3H-imidazol-4-ylmethyl)-2-oxo-ethylcarbamoyl]-5-(4-hydroxy-benzyl)-phenylcarbamoyl]-4-guanidino-butyl}-succinamic acid] (H-DR[X1]HPF-OH)
